Assay results from US5216165A, “N-substituted aminoquinolines as analgesic agents” (American Home Products Corporation, priority 1992, dated 1993).
Where a name gives a salt, the structure may show the parent alone. Read-outs that look alike come from different tables or passages of the source.

Tests used:
[1] = tested on: bradykinin-induced writhing response; assay: inhibition of the writhing response induced in mice by exogenous administration of bradykinin; type: in vivo, mice (male CD-1)
BK2 receptor = biological target: T1, BK2 receptor (Cavia porcellus, UniProt O70526); assay: competition with tritiated bradykinin (3H-BK) for BK2 receptor sites in guinea pig ileum; type: binding; settings: for Activity (reference compounds, 3H-BK binding): screened at 100 μM
T1 construct: The distal portion of the ileum is removed and placed in ice cold homogenization buffer; from tissue; host or cells: distal ileum of adult male Hartley strain guinea pig, washed 50,000×g pellet of homogenate
T1 sequence (O70526 1-372): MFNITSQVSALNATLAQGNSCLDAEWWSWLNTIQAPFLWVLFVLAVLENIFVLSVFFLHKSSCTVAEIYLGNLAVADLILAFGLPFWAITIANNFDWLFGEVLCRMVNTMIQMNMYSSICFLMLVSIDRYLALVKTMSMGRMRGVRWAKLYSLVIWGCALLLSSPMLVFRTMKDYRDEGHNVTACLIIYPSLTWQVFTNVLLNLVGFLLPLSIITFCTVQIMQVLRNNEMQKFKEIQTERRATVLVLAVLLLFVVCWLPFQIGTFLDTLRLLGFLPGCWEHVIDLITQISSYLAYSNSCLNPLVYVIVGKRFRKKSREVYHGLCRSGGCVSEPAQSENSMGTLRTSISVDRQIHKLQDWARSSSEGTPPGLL
Description: This assay is employed to identify compounds which compete specifically with tritiated bradykinin (^3 H-BK) for BK2 receptor sites in guinea pig ileum.
The assay is carried out as follows:
A 350-500 g adult male Hartley strain guinea pig is euthanized by stunning followed by decapitation. The distal portion of the ileum is removed and placed in ice cold homogenization buffer [25 mM N-tris(hydroxymethyl)methyl-2-aminoethane sulfonic acid (TES) 1 mM 1,10-phenanthroline, adjusted to pH 6.8 with NH4 OH]. The contents of the ileal lumen are rinsed out with cold homogenization buffer. The tissue is cut into small pieces and homogenized in 20 volumes of homogenization buffer using a Brinkmann Polytron homogenizer equipped with a PTA 10 TS generator. The tissue is homogenized for 10 seconds, three times, at setting 5.
The homogenate is filtered through a surgical gauze sponge and centrifuged at 50,000×g for 20 minutes at 4° C. The supernatant fluid is discarded and the homogenization and centrifugation procedure is repeated. After discarding the supernatant fluid, the final pellet is resuspended in 40 volumes of assay buffer [25 mM TES, pH=6.8, 1 mM 1,10-phenanthroline, 1 mM dithiothreitol, 2 μM captopril, 140 μg/ml bacitracin and 0.1% bovine serum albumin (BSA)]. The homogenate is filtered once more through a surgical gauze sponge and kept on ice until use.
The assay is performed using only polypropylene pipet tips and polypropylene test tubes. Each tube receives 100 μl of 800 pM ^3 H-BK, 100 μl of the test compound solution or vehicle (TES assay buffer), and 100 μl of 25 mg/ml tissue homogenate in a total volume of 1 ml. The final concentration of ^3 H-BK is 80 pM. The final tissue concentration is 2.5 mg/ml. Compounds are screened at 100 μM. Nonspecific binding is determined in the presence of 1 μM unlabeled bradykinin. All determinations are made in triplicate. Three 100 μl aliquots of the 800 pM 3 H-BK working solution are added directly to scintillation vials to determine the total added radioactivity.
The tubes are incubated for 90 minutes at 25° C. while being gently agitated on an orbital shaker. Bound ligand is separated from free ligand, using Whatman GF/B glass fiber filters (pretreated with 0.1% aqueous polyethyleneimine made neutral with HCl). A Brandel receptor binding harvester is used. Assay tubes and glass fiber filters are rinsed three times with 3 ml of cold physiological saline.
The filter discs are transferred to 20 ml scintillation vials. Ten ml of aqueous sample LSC cocktail (Aquassure, New England Nuclear) is added to each vial. After capping, the vials are agitated for 5 minutes on an orbital shaker. The samples are counted for ten minutes in a refrigerated liquid scintillation counter.
The following values are obtained:
Bx Total binding in the presence of the test compound
C Control specific binding. C=Bt -Bns
D Specific binding in the presence of the test compound. D=Bx -Bns
Percent of control: D/C×100
Percent Inhibition: (1-D/C)×100
After calculation of Percent of Control for each dilution, the values are analyzed and the IC50 with its 95% confidence limits is determined on a Hewlett Packard 9816 computer using the program "PS-NONLIN" (generalizednon-linear regression with inverse prediction and graphics).

[2] = guinea pig ileum homogenate, 80 pM 3H-BK, 90 min, 25° C., pH 6.8, read-out: IC50
[3] = 30 mg/kg i.p., bradykinin 0.5 mg/kg i.p. after PGE2
[4] = bradykinin 0.5 mg/kg i.p. after PGE2
[5] = guinea pig ileum homogenate, 80 pM 3H-BK

Molecule | IC50 (BK2 receptor; [2]) [µM] | % Inhibition at 30 mg/kg i.p. [1, 3] [%] | other results
CC(=O)Nc1ccc(O)cc1 [Acetaminophen, reference compound] | – | – | % inhibition of writhing ([1]; at 300 mg/kg p.o. (reference compound acetaminophen)): 20%
CCCCN1CCC(NCc2ccc(Nc3ccnc4cc(Cl)ccc34)cc2)CC1 [Example 1, N-[4-[[(1-Butyl-4-piperidinyl)amino]methyl]phenyl]-7-chloro-4-quinolinamine] | 8.4 | 13.1 | % Inhibition at 200 mg/kg p.o. [1, 4]: 7.1%
CCCCN1CCC(N(Cc2ccc(Nc3ccnc4cc(Cl)ccc34)cc2)C(C)=O)CC1 [Example 2, N-(1-Butyl-4-piperidinyl)-N-[[4-[(7-chloro-4-quinolinyl)amino]phenyl]methyl]acetamide] | 6 | 51.0 | % Inhibition at 200 mg/kg p.o. [1, 4]: 26.0%
CCCCN1CCC(N(Cc2ccc(Nc3ccnc4ccccc34)cc2)C(C)=O)CC1 [Example 3, N-(1-Butyl-4-piperidinyl)-N-[[4-(4-quinolinylamino)phenyl]methyl]acetamide] | 10.8 | – | –
CCCCN1CCC(N(Cc2ccc(Nc3ccnc4cc(Cl)ccc34)cc2)C(=O)c2ccccc2)CC1 [Example 4, N-(1-Butyl-4-piperidinyl)-N-[[4-[7-chloro-4-quinolinyl)amino]phenyl]methyl]benzamide, hydrochloride] | 2 | 40.0 | –
CCCCN1CCC(N(Cc2ccc(Nc3ccnc4cc(Cl)ccc34)cc2)C(=O)CCc2ccccc2)CC1.Cl [Example 5, N-(1-Butyl-4-piperidinyl)-N-[[4-[(7-chloro-4-quinolinyl)amino]phenyl]methyl]benzenepropanamide, hydrochloride] | 1.6 | 85.0 | % Inhibition at 200 mg/kg p.o. [1, 4]: 27.0%
CCCCN1CCC(N(Cc2ccc(Nc3ccnc4cc(Cl)ccc34)cc2)C(=O)C(F)(F)C(F)(F)C(F)(F)F)CC1.Cl [Example 6, N-(1-Butyl-4-piperidinyl)-N-[[4-[(7-chloro-4-quinolinyl)amino]phenyl]-methyl]-2,2,3,3,4,4,4-heptafluorobutanamide, hydrochloride] | – | – | IC50 (BK2 receptor): 4.3 µM; % Inhibition at 30 mg/kg i.p. ([1]; mouse, in vivo): 68.0%
CCCCN1CCC(N(Cc2ccc(Nc3ccnc4cc(Cl)ccc34)cc2)C(=O)C(F)(F)F)CC1.Cl [Example 7, N-(1-butyl-4-piperidinyl)-N-[[4-[(7-chloro-4-quinolinyl)amino]-phenyl]methyl]-2,2,2-trifluoroacetamide, hydrochloride] | 2.4 | 44.0 | –
CCCCN1CCC(N(Cc2ccc(Nc3ccnc4cc(Cl)ccc34)cc2)C(=O)CCC)CC1.Cl [Example 8, N-(1-Butyl-4-piperidinyl)-N-[[4-[(7-chloro-4-quinolinyl)-amino]phenyl]methyl]butanamide, hydrochloride] | 1.2 | 80.0 | % Inhibition at 200 mg/kg p.o. [1, 4]: 58.0%
CCN(CC)C(=O)c1ccc(CN2CCC(NCc3ccc(Nc4ccnc5cc(Cl)ccc45)cc3)CC2)cc1.Cl [Example 9, 4-[[4-[[[4-[(7-Chloro-4-quinolinyl)amino]phenyl]methyl]amino]-1-piperidinyl]methyl]-N,N-diethylbenzamide, hydrochloride] | 0.77 | 0.0 | –
Clc1ccc2c(Nc3ccc(CNC4CCN(Cc5ccccc5)CC4)cc3)ccnc2c1 [Example 10, 7-Chloro-N-[4-[[[1-(phenylmethyl)-4-piperidinyl]amino]methyl]phenyl]-4-quinolinamine] | 4 | 2.5 | –
CCCC(=O)N(Cc1ccc(Nc2ccnc3cc(Cl)ccc23)cc1)C1CCN(Cc2ccc(C(=O)N(CC)CC)cc2)CC1 [Example 12, 4-[[4-[[[4-[(7-Chloro-4-quinolinyl)amino]phenyl]methyl]-(1-oxobutyl)amino]-1-piperidinyl]methyl]-N,N-diethylbenzamide, hydrochloride, 0.76 hydrate] | 2.7 | 5 | –
CCN(CC)C(=O)CCCCCN1CCC(NCc2ccc(Nc3ccnc4cc(Cl)ccc34)cc2)CC1 [Example 13, 4-[[[4-[(7-Chloro-4-quinolinyl)amino]phenyl]methyl]amino]-N,N-diethyl-1-piperidinehexanamide, tris(trifluoroacetate), 0.42 hydrate] | 3.9 | 43 | –
CCCC(=O)N(Cc1ccc(Nc2ccnc3cc(Cl)ccc23)cc1)C1CCN(CCCCCC(=O)N(CC)CC)CC1 [Example 14, 4-[[[4-[(7-Chloro-4-quinolinyl)amino]phenyl]methyl](1-oxobutyl)amino]-N,N-diethyl-1-piperidinehexanamide, 0.56 hydrate] | 5.5 | 81 | % Inhibition at 200 mg/kg p.o. [1, 4]: 46%
O=C(c1ccccc1)N1CCC(NCc2ccc(Nc3ccnc4cc(Cl)ccc34)cc2)CC1 [Example 15, 1-Benzoyl-N-[[[4-[(7-chloro-4-quinolinyl)amino]phenyl]methyl]-4-piperidinanaminetrifluoroacetate (1:2), 1.03 hydrate] | 13.8 | 43 | –
CCCCCCCCCCCC(=O)N(Cc1ccc(Nc2ccnc3cc(Cl)ccc23)cc1)C1CCN(CCCCCC(=O)N(CC)CC)CC1.Cl [Example 16, 4-[[[4-[(7-Chloro-4-quinolinyl)amino]phenyl]methyl](1-oxododecyl)-amino]-N,N-diethyl-1-piperidinehexanamide, hydrochloride] | 3.8 | 30 | –
CC(C)Cc1ccc(C(C)C(=O)O)cc1 (centres unmarked) [Ibuprofen, reference compound] | – | – | % inhibition of writhing ([1]; at 200 mg/kg p.o. (reference compound ibuprofen)): 43%
CC(C(=O)O)c1cccc(C(=O)c2ccccc2)c1 (centres unmarked) [Ketoprofen, reference compound] | – | – | % inhibition of writhing ([1]; mouse, in vivo, po, 100 mg/kg): 52%
CN1CC[C@]23c4c5ccc(O)c4O[C@H]2[C@@H](O)C=C[C@H]3[C@H]1C5 [Morphine, reference compound] | – | – | ED50 ([1]; Mus musculus, po): 4.5 mg/kg
Des Arg^9 --BK: BK1 Agonist (RPPGFSPF; Bradykinin; UniProt P01042 381-388, looked up, fragment) [reference compound] | – | – | Activity (reference compounds, 3H-BK binding) (BK2 receptor; [5]): No Activity
DesArg^9 --Leu^8 BK: BK1 Antagonist [reference compound] | – | – | Activity (reference compounds, 3H-BK binding) (BK2 receptor; [5]): No Activity
Thi^5,8 --DPhe^7 --BK [reference compound] | – | – | IC50 (BK2 receptor; guinea pig ileum homogenate, 80 pM 3H-BK, 90 min, 25° C., pH 6.8, read-out: IC50 (reference compounds)): 0.069 µM
